Reference: patent EP1188765B1, “Medical Use of Mechanism-oriented inhibitors of dipeptidyl peptidase I” (Probiodrug AG, priority 1998, dated 2000)
Entries after “also recorded” stand apart in the source; their conditions may differ. One block for each compound: values may come before it.

How the values were obtained:
[1] = target: T1, DP Ibovine (Bos taurus, UniProt Q3ZCJ8); assay: Inactivation of DP I from bovine kidney (second-order rate constants); assay type: biochemical, Rinder
T1 construct: Inaktivierung der DP I aus Rinder- bzw. humaner Niere mittels H-Gly-Phe-NHO-Bz; from tissue; host or cells: bovine kidney

[2] = target: T2, DP Ihum (Homo sapiens, UniProt P53634); assay: Inactivation of DP I from human kidney (second-order rate constants); assay type: biochemical
T2 construct: DP I (humane Niere); from tissue; host or cells: human kidney

[3] = test system: DP I; conditions: literature (Nikawa et al., 1992); cited from earlier work
[4] = target: T3, Cathepsin B (hum. Leber) (Homo sapiens, UniProt P07858); assay: Inactivation of cathepsin B (second-order rate constants); assay type: biochemical; conditions: Table 3
T3 construct: Cathepsin B (hum. Leber); from tissue; host or cells: human liver

[5] = target: T4, Cathepsin L (hum. Leber) (Homo sapiens, UniProt P07711); assay: Inactivation of cathepsin L (second-order rate constants); assay type: biochemical; conditions: Table 3
T4 construct: Cathepsin L (hum. Leber); from tissue; host or cells: human liver

[6] = target: DP I (Homo sapiens, UniProt P53634); assay: Protection of glucagon from degradation by DP I, MALDI-TOF mass spectra; assay type: biochemical; conditions: 0.14 mM Glukagon, 40 mM TRIS/HCl pH 7,6; enzyme 15 nM; inhibitor 300 nM, 5 min preincubation with DP I
Source text: Schutz des Abbaus des Peptidhormons Glukagon durch Vorinkubation von DP I mit H-Gly-Phe-NHO-Bz
Abbildung 1: MALDI-TOF-Massenspektren von Reaktionslösungen, die Glukagon und DP I enthalten.

[7] = test system: "DCE" (Dynorphin Converting Enzyme); conditions: Demuth et al. 1991; cited from earlier work
[8] = DP Ibovine, inhibitor concentration 1e^-4 M, Table 2
[9] = DP Ihum, inhibitor concentration 1e^-4 M, Table 2
[10] = DP Ibovine, inhibitor concentration 2e^-5 M, Table 2
[11] = DP Ihum, inhibitor concentration 2e^-5 M, Table 2

T1 sequence (Q3ZCJ8 231-394 limits assumed): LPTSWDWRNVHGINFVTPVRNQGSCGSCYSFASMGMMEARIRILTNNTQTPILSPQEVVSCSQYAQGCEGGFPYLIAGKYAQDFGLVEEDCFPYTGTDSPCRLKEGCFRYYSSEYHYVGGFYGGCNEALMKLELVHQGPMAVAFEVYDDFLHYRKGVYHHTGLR
T1 sequence (Q3ZCJ8 25-143 limits assumed): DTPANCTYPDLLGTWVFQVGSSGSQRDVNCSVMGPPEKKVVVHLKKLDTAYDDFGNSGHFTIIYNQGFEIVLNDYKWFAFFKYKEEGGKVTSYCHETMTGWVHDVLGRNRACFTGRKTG
T1 sequence (Q3ZCJ8 395-463 limits assumed): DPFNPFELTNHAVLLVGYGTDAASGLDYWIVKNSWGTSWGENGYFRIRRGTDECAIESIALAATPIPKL
T2 sequence (P53634 231-394 limits assumed): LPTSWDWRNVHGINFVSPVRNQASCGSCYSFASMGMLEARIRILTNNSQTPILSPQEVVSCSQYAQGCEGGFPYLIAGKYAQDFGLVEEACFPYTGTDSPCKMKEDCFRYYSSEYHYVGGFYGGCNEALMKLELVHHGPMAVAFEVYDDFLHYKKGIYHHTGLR
T2 sequence (P53634 25-143 limits assumed): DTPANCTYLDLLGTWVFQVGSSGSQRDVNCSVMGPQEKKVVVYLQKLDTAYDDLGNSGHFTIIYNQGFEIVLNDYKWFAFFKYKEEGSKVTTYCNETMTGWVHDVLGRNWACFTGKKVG
T2 sequence (P53634 395-463 limits assumed): as the sequence (Q3ZCJ8 395-463 limits assumed) above, with A22S, L26M, S38G, L61V counted along it
T4 sequence (P07711 114-333): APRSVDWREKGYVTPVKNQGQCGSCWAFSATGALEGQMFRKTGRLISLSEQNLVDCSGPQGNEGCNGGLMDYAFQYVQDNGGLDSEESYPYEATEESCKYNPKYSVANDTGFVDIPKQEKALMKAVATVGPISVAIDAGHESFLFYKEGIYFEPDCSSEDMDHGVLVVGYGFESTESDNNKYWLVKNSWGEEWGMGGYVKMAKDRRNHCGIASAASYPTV
DP I (Homo sapiens, UniProt P53634), sequence (P53634 25-463): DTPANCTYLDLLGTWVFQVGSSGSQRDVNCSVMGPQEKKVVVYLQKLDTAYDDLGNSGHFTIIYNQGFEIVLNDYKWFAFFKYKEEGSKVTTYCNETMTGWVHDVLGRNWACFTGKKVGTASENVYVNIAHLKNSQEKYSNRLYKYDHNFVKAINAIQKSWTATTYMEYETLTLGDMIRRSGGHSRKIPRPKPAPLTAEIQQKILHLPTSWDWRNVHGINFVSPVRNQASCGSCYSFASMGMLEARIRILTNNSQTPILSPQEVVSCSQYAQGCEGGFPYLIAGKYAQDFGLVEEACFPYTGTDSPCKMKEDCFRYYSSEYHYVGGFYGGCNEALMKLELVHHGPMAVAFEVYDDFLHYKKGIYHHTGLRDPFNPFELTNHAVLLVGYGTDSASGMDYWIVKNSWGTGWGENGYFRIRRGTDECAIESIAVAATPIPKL

Compound: C[C@H](NC(=O)OC(C)(C)C)C(=O)N[C@@H](C)C(=O)N[C@@H](C)C(=O)NOC(=O)c1ccccc1 [Boc-Ala-Ala-Ala-NHO-Bz]
kinact/Ki [1, 8]: keine Hemmung (1e^-4) | kinact/Ki [2, 9]: keine Hemmung (1e^-4)

Compound: C[C@H](NC(=O)OC(C)(C)C)C(=O)N[C@@H](C)C(=O)NOC(=O)c1ccccc1 [Boc-Ala-Ala-NHO-Bz]
kinact/Ki [1, 8]: keine Hemmung (1e^-4) | kinact/Ki [2, 9]: keine Hemmung (1e^-4)

Compound: C[C@H](NC(=O)OC(C)(C)C)C(=O)N1CCC[C@H]1C(=O)N[C@@H](Cc1ccccc1)C(=O)NOC(=O)c1ccccc1 [Boc-Ala-Pro-Phe-NHO-Bz]
kinact/Ki [1, 8]: keine Hemmung (1e^-4) | kinact/Ki [2, 9]: keine Hemmung (1e^-4)

Compound: CC(C)C[C@H](NC(=O)[C@H]1O[C@@H]1C(=O)O)C(=O)NCCCCN=C(N)N [E-64]
Inhibierung der DP I [3]: nur schwach inhibiert; also recorded: inert

Compound: CC(=O)N[C@@H](CC(C)C)C(=O)N[C@@H](CC(C)C)C(=O)N[C@H](C=O)CCCNC(=N)N [Leupeptin]
Inhibierung der DP I [3]: nur schwach inhibiert

More lines, main results first:

kinact/KI [4]: 87 M⁻¹ s⁻¹ | kinact/KI [5]: 37 M⁻¹ s⁻¹ | kinact/KI ([1]; DP I from bovine kidney, Table 1): 36700 M⁻¹ s⁻¹ | Inhibierung des Glukagonabbaus durch DP I [6]: Inhibierung des Glukagonabbaus | kinact/Ki ([2]; DP I (humane Niere), Table 3): 34979 s^-1M^-1 | kinact/KI ([2]; DP I from human kidney, Table 1): 35000 M⁻¹ s⁻¹
Compound: NCC(=O)N[C@@H](Cc1ccccc1)C(=O)NOC(=O)c1ccccc1 [H-Gly-Phe-NHO-Bz, N-(H-Gly-Phe-),O-Benzoyl Hydroxylamin]

kinact/KI ([1]; DP Ibovine, inhibitor concentration 1e^-6 M, Table 2): 3950 M⁻¹ s⁻¹ | kinact/KI ([2]; DP Ihum, inhibitor concentration 1e^-6 M, Table 2): 3620 M⁻¹ s⁻¹
Compound: N[C@@H](Cc1ccc(O)cc1)C(=O)NCC(=O)NOC(=O)c1ccccc1 [H-Tyr-Gly-NHO-Bz]
Inhibierung des Enzyms DCE [7]: nur schwach und reversibel inhibiert

kinact/Ki [1, 10]: keine Hemmung (2e^-5) | kinact/Ki [2, 11]: keine Hemmung (2e^-5)
Compound: Cc1ccc(C(=O)ONC(=O)[C@H](Cc2ccccc2)NC(=O)CNC(=O)OCc2ccccc2)cc1 [Z-Gly-Phe-NHO-Bz-CH3]

kinact/KI [4]: 418 M⁻¹ s⁻¹ | kinact/KI [5]: 223 M⁻¹ s⁻¹ | kinact/Ki ([2]; DP I (humane Niere), Table 3): Keine Hemmung
Compound: O=C(CNC(=O)OCc1ccccc1)N[C@@H](Cc1ccccc1)C(=O)NOC(=O)c1ccccc1 [Z-Gly-Phe-NHO-Bz]

kinact/Ki [1, 10]: 149 M⁻¹ s⁻¹ | kinact/Ki [2, 11]: 208 M⁻¹ s⁻¹
Compound: H-Ile-Pro-NHO-Nb
